# Biological target: T1, ER (Homo sapiens, UniProt P03372)
# T1 construct: host or cells: T47D and MCF7 human breast cancer cells
# T1 sequence (P03372 1-595): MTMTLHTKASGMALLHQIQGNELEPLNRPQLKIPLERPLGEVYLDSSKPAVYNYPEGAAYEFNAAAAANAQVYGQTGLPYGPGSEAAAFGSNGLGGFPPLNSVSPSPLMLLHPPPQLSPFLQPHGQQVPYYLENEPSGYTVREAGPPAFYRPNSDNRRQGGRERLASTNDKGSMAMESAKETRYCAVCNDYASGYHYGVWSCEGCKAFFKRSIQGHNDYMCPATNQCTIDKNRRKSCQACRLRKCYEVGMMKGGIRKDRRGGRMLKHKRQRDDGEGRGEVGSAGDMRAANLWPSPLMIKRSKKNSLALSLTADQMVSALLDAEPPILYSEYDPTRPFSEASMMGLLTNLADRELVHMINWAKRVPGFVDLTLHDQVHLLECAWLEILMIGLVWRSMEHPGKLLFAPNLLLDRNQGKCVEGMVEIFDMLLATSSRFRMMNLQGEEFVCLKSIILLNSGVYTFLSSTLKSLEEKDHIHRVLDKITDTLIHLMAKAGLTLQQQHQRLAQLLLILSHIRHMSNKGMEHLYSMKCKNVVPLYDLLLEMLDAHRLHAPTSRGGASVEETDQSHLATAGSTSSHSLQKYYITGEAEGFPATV
# Assay: ER degradation activity, in-cell western blot analysis in T47D cells
# Type: cell-based
# Conditions: 16 hours, Table A does not say which cell line (T47D or MCF7), read-out: Potency (DC50)
# How it was run: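 In-cell western, T47D; compounds 16 h, 0.5% DMSO final; anti-rabbit-680/anti-mouse-800 secondaries, 1 h RT, dark; read on CLX imager. ER % vs untreated/DMSO wells (100%).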
row,DC50 [nM],Compound
1,> 100,"O=C1CCC(N2C(=O)c3cc4c(cc3C2=O)CN(CC(=O)N2CCC(n3cc(-c5ccc([C@@H]6c7ccc(O)cc7CC[C@@H]6c6ccccc6)cc5)cn3)CC2)C4)C(=O)N1 (stereo partly drawn) [E 214, 2-(2,6-dioxopiperidin-3-yl)-6-(2-(4-(4-(4-((1R,2S)-6-hydroxy-2-phenyl-1,2,3,4-tetrahydronaphthalen-1-yl)phenyl)-1H-pyrazol-1-yl)piperidin-1-yl)-2-oxoethyl)-6,7-dihydropyrrolo[3,4-f]isoindole-1,3(2H,5H)-dione]"
2,> 100,"C[C@@H]1Cc2c([nH]c3ccccc23)[C@@H](c2c(F)cc(N3CCC4(CCN(CC5Cc6cc7c(cc6C5)C(=O)N(C5CCC(=O)NC5=O)C7=O)CC4)CC3)cc2F)N1CC(F)(F)F (stereo partly drawn) [E 231, 6-((9-(3,5-difluoro-4-((1R,3R)-3-methyl-2-(2,2,2-trifluoroethyl)-2,3,4,9-tetrahydro-1H-pyrido[3,4-b]indol-1-yl)phenyl)-3,9-diazaspiro[5.5]undecan-3-yl)methyl)-2-(2,6-dioxopiperidin-3-yl)-6,7-dihydrocyclopenta[f]isoindole-1,3(2H,5H)-dione]"
3,> 100,"O=C1CCC(N2C(=O)c3cc4c(cc3C2=O)CN(C(=O)CN2CCC3(CC2)CCN(c2ccc([C@@H]5c6ccc(O)cc6CC[C@@H]5c5ccccc5)cc2)C3)C4)C(=O)N1 (mixture of isomers) [E 141, Rac-2-(2,6-dioxopiperidin-3-yl)-6-(2-(2-(4-((1R,2S)-6-hydroxy-2-phenyl-1,2,3,4-tetrahydronaphthalen-1-yl)phenyl)-2,8-diazaspiro[4.5]decan-8-yl)acetyl)-6,7-dihydropyrrolo[3,4-f]isoindole-1,3(2H,5H)-dione]"
4,> 100,"O=C1CCC(N2C(=O)c3cc4c(cc3C2=O)CN(CC(=O)N2CCC[C@H](Oc3ccc([C@@H]5c6ccc(O)cc6CC[C@@H]5c5ccc(F)cc5)cc3)C2)C4)C(=O)N1 (mixture of isomers) [E 157, Rac-2-(2,6-dioxopiperidin-3-yl)-6-(2-((S)-3-(4-((1R,2S)-2-(4-fluorophenyl)-6-hydroxy-1,2,3,4-tetrahydronaphthalen-1-yl)phenoxy)piperidin-1-yl)-2-oxoethyl)-6,7-dihydropyrrolo[3,4-f]isoindole-1,3(2H,5H)-dione]"
5,> 100,"O=C1CCC(N2C(=O)c3cc4c(cc3C2=O)CN(C(=O)CN2CCC3(CC2)CCN(c2ccc([C@@H]5c6ccc(B(O)O)cc6CC[C@@H]5c5ccccc5)cc2)CC3)C4)C(=O)N1 (mixture of isomers) [E 181, Rac-((5R,6S)-5-(4-(9-(2-(6-(2,6-dioxopiperidin-3-yl)-5,7-dioxo-3,5,6,7-tetrahydropyrrolo[3,4-f]isoindol-2(1H)-yl)-2-oxoethyl)-3,9-diazaspiro[5.5]undecan-3-yl)phenyl)-6-phenyl-5,6,7,8-tetrahydronaphthalen-2-yl)boronic acid]"
6,10 to 100,"O=C1CCC(N2C(=O)c3cc4c(cc3C2=O)CN(CC(=O)N2CCC3(CCN(c5ccc([C@@H]6c7ccc(O)cc7CC[C@@H]6c6ccccc6)cc5)CC3)C2)C4)C(=O)N1 (mixture of isomers) [E 7, rac-2-(2,6-dioxopiperidin-3-yl)-6-(2-(8-(4-((1R,2S)-6-hydroxy-2-phenyl-1,2,3,4-tetrahydronaphthalen-1-yl)phenyl)-2,8-diazaspiro[4.5]decan-2-yl)-2-oxoethyl)-6,7-dihydropyrrolo[3,4-f]isoindole-1,3(2H,5H)-dione]"
7,> 100,"CN(C1CCC(CN2Cc3cc4c(cc3C2)C(=O)N(C2CCC(=O)NC2=O)C4=O)CC1)C1CCN(c2ccc([C@@H]3c4ccc(O)cc4CC[C@@H]3c3ccccc3)cc2)CC1 (stereo partly drawn) [E 289, 2-(2,6-dioxopiperidin-3-yl)-6-((4-((1-(4-((1R,2S)-6-hydroxy-2-phenyl-1,2,3,4-tetrahydronaphthalen-1-yl)phenyl)piperidin-4-yl)(methyl)amino)cyclohexyl)methyl)-6,7-dihydropyrrolo[3,4-f]isoindole-1,3(2H,5H)-dione]"
8,> 100,"O=C1CCC(N2C(=O)c3cc4c(cc3C2=O)CN(C(=O)C2CCN(CC3CN(c5ccc([C@@H]6c7ccc(O)cc7CC[C@@H]6c6ccccc6)cc5)C3)CC2)C4)C(=O)N1 (stereo partly drawn) [E 295, 2-(2,6-dioxopiperidin-3-yl)-6-(1-((1-(4-((1R,2S)-6-hydroxy-2-phenyl-1,2,3,4-tetrahydronaphthalen-1-yl)phenyl)azetidin-3-yl)methyl)piperidine-4-carbonyl)-6,7-dihydropyrrolo[3,4-f]isoindole-1,3(2H,5H)-dione]"
9,10 to 100,"C[C@@H]1Cc2c([nH]c3ccccc23)[C@@H](c2ccc(N3CCC4(CC3)CN(C(=O)CN3Cc5cc6c(cc5C3)C(=O)N(C3CCC(=O)NC3=O)C6=O)C4)cc2)N1CC(F)F (stereo partly drawn) [E 262, 6-(2-(7-(4-((1R,3R)-2-(2,2-difluoroethyl)-3-methyl-2,3,4,9-tetrahydro-1H-pyrido[3,4-b]indol-1-yl)phenyl)-2,7-diazaspiro[3.5]nonan-2-yl)-2-oxoethyl)-2-(2,6-dioxopiperidin-3-yl)-6,7-dihydropyrrolo[3,4-f]isoindole-1,3(2H,5H)-dione]"
10,> 100,"O=C1CCC(N2C(=O)c3cc4c(cc3C2=O)CN([C@H]2CC[C@@H](C(=O)N3CC(Nc5ccc([C@H]6c7ccc(O)cc7CC[C@H]6c6ccccc6)cc5)C3)CC2)C4)C(=O)N1 (stereo partly drawn) [E 386, 2-(2,6-dioxopiperidin-3-yl)-6-((1R,4s)-4-(3-((4-((1S,2R)-6-hydroxy-2-phenyl-1,2,3,4-tetrahydronaphthalen-1-yl)phenyl)amino)azetidine-1-carbonyl)cyclohexyl)-6,7-dihydropyrrolo[3,4-f]isoindole-1,3(2H,5H)-dione]"
11,> 100,"O=C1CCC(N2C(=O)c3cc4c(cc3C2=O)CN(CC(=O)N2CCC3(CC2)CCN(c2cnc([C@@H]5c6ccc(O)cc6CC[C@@H]5c5ccccc5)cn2)CC3)C4)C(=O)N1 (mixture of isomers) [E 304, Rac-2-(2,6-dioxopiperidin-3-yl)-6-(2-(9-(5-((1S,2S)-6-hydroxy-2-phenyl-1,2,3,4-tetrahydronaphthalen-1-yl)pyrazin-2-yl)-3,9-diazaspiro[5.5]undecan-3-yl)-2-oxoethyl)-6,7-dihydropyrrolo[3,4-f]isoindole-1,3(2H,5H)-dione]"
12,< 10,"C[C@@H]1Cc2c([nH]c3ccccc23)[C@@H](c2c(F)cc(N3CCC4(CCN(CC(=O)N5Cc6cc7c(cc6C5)C(=O)N(C5CCC(=O)NC5=O)C7=O)C4)CC3)cc2F)N1CC(F)F (stereo partly drawn) [E 62, 6-(2-(8-(4-((1R,3R)-2-(2,2-difluoroethyl)-3-methyl-2,3,4,9-tetrahydro-1H-pyrido[3,4-b]indol-1-yl)-3,5-difluorophenyl)-2,8-diazaspiro[4.5]decan-2-yl)acetyl)-2-(2,6-dioxopiperidin-3-yl)-6,7-dihydropyrrolo[3,4-f]isoindole-1,3(2H,5H)-dione]"
13,> 100,"O=C1CCC(N2C(=O)c3cc4c(cc3C2=O)CN(Cc2ccc(N3CC(Nc5ccc([C@@H]6c7ccc(O)cc7CC[C@@H]6c6ccccc6)cc5)C3)nc2)C4)C(=O)N1 (stereo partly drawn) [E 373, 2-(2,6-dioxopiperidin-3-yl)-6-((6-(3-((4-((1R,2S)-6-hydroxy-2-phenyl-1,2,3,4-tetrahydronaphthalen-1-yl)phenyl)amino)azetidin-1-yl)pyridin-3-yl)methyl)-6,7-dihydropyrrolo[3,4-f]isoindole-1,3(2H,5H)-dione]"
14,< 10,"C[C@@H]1Cc2c([nH]c3ccccc23)[C@@H](c2c(F)cc(N3CC[C@@H](CN4CCC(C(=O)N5Cc6cc7c(cc6C5)C(=O)N(C5CCC(=O)NC5=O)C7)CC4)C3)cc2F)N1CC(F)F (stereo partly drawn) [E 90, 3-(6-(1-(((S)-1-(4-((1R,3R)-2-(2,2-difluoroethyl)-3-methyl-2,3,4,9-tetrahydro-1H-pyrido[3,4-b]indol-1-yl)-3,5-difluorophenyl)pyrrolidin-3-yl)methyl)piperidine-4-carbonyl)-1-oxo-3,5,6,7-tetrahydropyrrolo[3,4-f]isoindol-2(1H)-yl)piperidine-2,6-dione]"
15,10 to 100,"O=C1CCC(N2C(=O)c3cc4c(cc3C2=O)CN(CC2CCN(C(=O)C3CCN(c5ccc([C@@H]6c7ccc(O)cc7CC[C@@H]6c6ccccc6)cc5)CC3)CC2)C4)C(=O)N1 (stereo partly drawn) [E 204, 2-(2,6-dioxopiperidin-3-yl)-6-((1-(1-(4-((1R,2S)-6-hydroxy-2-phenyl-1,2,3,4-tetrahydronaphthalen-1-yl)phenyl)piperidine-4-carbonyl)piperidin-4-yl)methyl)-6,7-dihydropyrrolo[3,4-f]isoindole-1,3(2H,5H)-dione]"

# Same assay, conditions: compounds 16 hours, Table A does not say whether T47D or MCF7, read-out: Potency (DC50)
row,DC50 [nM],Compound
1,10 to 100,"C[C@@H]1Cc2c([nH]c3ccccc23)[C@@H](c2cnc(N3CC4(CCC(CN5Cc6cc7c(cc6C5)C(=O)N(C5CCC(=O)NC5=O)C7=O)CC4)C3)nc2)N1CC(C)(C)F (stereo partly drawn) [E 471, 2-(2,6-dioxopiperidin-3-yl)-6-((2-(5-((1R,3R)-2-(2-fluoro-2-methylpropyl)-3-methyl-2,3,4,9-tetrahydro-1H-pyrido[3,4-b]indol-1-yl)pyrimidin-2-yl)-2-azaspiro[3.5]nonan-7-yl)methyl)-6,7-dihydropyrrolo[3,4-f]isoindole-1,3(2H,5H)-dione]"

# — patent publication US20240190880A1 (THE REGENTS OF THE UNIVERSITY OF MICHIGAN, priority 2021, published 2024)
